Data published in ChEMBL document CHEMBL1127123, “Justicidin E: A new leukotriene biosynthesis inhibitor” (Bioorg Med Chem Lett, 1993).

Experiments:
[1] = biological target: T1, Polyunsaturated fatty acid 5-lipoxygenase (Homo sapiens, UniProt P09917); assay: In vitro inhibition of LTB4 biosynthesis by human leukocytes; format: functional
T1 sequence (P09917 whole entry): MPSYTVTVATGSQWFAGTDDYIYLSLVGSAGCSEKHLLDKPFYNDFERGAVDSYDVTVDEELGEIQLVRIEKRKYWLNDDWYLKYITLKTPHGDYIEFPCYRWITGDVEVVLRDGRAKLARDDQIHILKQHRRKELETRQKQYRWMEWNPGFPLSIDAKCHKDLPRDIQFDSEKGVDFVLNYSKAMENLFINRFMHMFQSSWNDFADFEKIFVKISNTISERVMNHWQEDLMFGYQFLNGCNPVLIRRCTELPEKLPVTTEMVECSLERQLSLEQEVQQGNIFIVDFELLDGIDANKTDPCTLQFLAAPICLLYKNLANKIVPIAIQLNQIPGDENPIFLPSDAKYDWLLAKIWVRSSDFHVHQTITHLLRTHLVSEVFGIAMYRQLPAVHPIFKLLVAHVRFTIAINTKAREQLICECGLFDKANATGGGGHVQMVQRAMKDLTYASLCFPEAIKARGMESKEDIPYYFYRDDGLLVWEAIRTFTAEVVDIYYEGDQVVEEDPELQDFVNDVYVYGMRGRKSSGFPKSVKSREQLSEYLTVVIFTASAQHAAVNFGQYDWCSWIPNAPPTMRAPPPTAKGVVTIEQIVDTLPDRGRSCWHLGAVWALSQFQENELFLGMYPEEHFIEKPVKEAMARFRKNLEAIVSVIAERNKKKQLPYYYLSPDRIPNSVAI

[2] = biological target: T1, Polyunsaturated fatty acid 5-lipoxygenase; assay: In vitro inhibition of human recombinant 5-lipoxygenase enzyme
[3] = biological target: T1, Polyunsaturated fatty acid 5-lipoxygenase; assay: In vitro inhibition of human recombinant lipoxygenase enzyme; No inhibition
[4] = biological target: T1, Polyunsaturated fatty acid 5-lipoxygenase; assay: In vitro inhibition of human recombinant lipoxygenase enzyme

Structure (SMILES)	IC50 [1] [nM]	further results
COc1ccc2c(-c3ccccc3)c3c(cc2c1)C(=O)OC3	180	
Cc1cc2cc3c(cc2c(-c2ccc4c(c2)OCO4)c1C)OCO3	250	
O=C1OCc2c1cc1ccncc1c2-c1ccccc1	3800	
O=C1OC(=O)c2c1cc1cc3c(cc1c2-c1ccc2c(c1)OCO2)OCO3	660	
O=C1OCc2c1cc1cc3c(cc1c2-c1ccc2c(c1)OCO2)OCO3	70	IC50 [2]: 500 nM
O=C1OCc2c1cc1cc(OCc3ccc(-c4ccccc4)cn3)ccc1c2-c1ccccc1	22	IC50 [3]: Not Active
COc1ccc(-c2c3c(cc4cc5c(cc24)OCO5)C(=O)OC3)cc1OC	> 5000	
O=C1OCc2c1cc1ccccc1c2-c1ccncc1	> 4000	
O=C1OCc2c1cc1ccccc1c2-c1ccccc1	250	
COc1ccc(-c2c3c(cc4ccccc24)C(=O)OC3)cc1	1400	
COc1cccc(-c2c3c(cc4ccccc24)C(=O)OC3)c1	42	
O=C1OCc2c1cc1cc(OCc3ccccc3)ccc1c2-c1ccccc1	100	IC50 [4]: 3000 nM
COc1ccc2cc3c(c(-c4ccccc4)c2c1)COC3=O	670	
O=C1OCc2c1cc1cc3c(cc1c2-c1ccccc1)OCO3	160	
O=C1OCc2c1cc1sccc1c2-c1ccccc1	450	
O=C1OCc2c1cc1cc(OCc3ccc4ccccc4n3)ccc1c2-c1ccccc1	88	
O=C1OCc2c1cc1ccccc1c2-c1ccc2c(c1)OCO2	380	
O=C1NCc2c1cc1cc3c(cc1c2-c1ccc2c(c1)OCO2)OCO3	4200	
OCc1cc2cc3c(cc2c(-c2ccc4c(c2)OCO4)c1CO)OCO3	2200	
c1cc2c(cc1C1c3cocc3Cc3cc4c(cc31)OCO4)OCO2 (stereo unspecified)	420	
c1cc2c(cc1-c1c3c(cc4cc5c(cc14)OCO5)COC3)OCO2	230	
COc1cc2cc3c(c(-c4ccc5c(c4)OCO5)c2cc1OC)COC3=O [RETROJUSTICIDIN B]	760	
O=C1OCc2cc3cc4c(cc3c(-c3ccc5c(c3)OCO5)c21)OCO4 [TAIWANIN C]	250	
